Results on 11 compounds are retold here after ChEMBL document CHEMBL1201862, “PubChem BioAssay data set” (2004).

Among the test systems are HCT-15; SF-268; NCI-H522; T47D; CAKI-1; RPMI-8226; U-251; TK-10; OVCAR-5; A549; HCT-116; MCF7; Malme-3M; UACC-62; SK-OV-3; KM12; MDA-N; OVCAR-8; HOP-62.
Assay in all cases: inhibition of tumour cell growth, NCI panel, 48 h

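1) Cells in 96-well plates. 2) Compound, 48 h, 5 concentrations. 3) Linear interpolation between surrounding doses. 4) Unreached endpoint = highest concentration. At the GI50, growth is halved.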 The source made the active and inactive calls. No stated cut-off is given here; in the data, active = GI50 up to about 1.1 µM and inactive = higher.

On to `O=c1c2cccnc2[s+]([O-])n1Cc1ccccc1` (centres undefined), for which the GI50 in the assay on HCT-15 is above 100 µM; in the assay with SF-268, > 100 µM (inactive); with NCI-H522, > 100 µM (inactive); in the assay with T47D, > 100 µM (inactive); in the assay with CAKI-1, > 100 µM (inactive); with RPMI-8226, > 100 µM (inactive). For the same compound, the GI50 in the assay with U-251, with TK-10, with OVCAR-5, in the assay with A549, in the assay with HCT-116 and in the assay with MCF7 was > 100 µM (inactive) in each case. Also, the GI50 with Malme-3M, with UACC-62, with SK-OV-3, in the assay on KM12, with MDA-N and in the assay on OVCAR-8 was > 100 µM (inactive) in each case.

Turning to `N/N=C(\C(=O)Nc1ccc([N+](=O)[O-])cc1)C(C1=Nc2cc([N+](=O)[O-])ccc2NC1)[N+](=O)[O-]` (centres undefined), the GI50 with HCT-15 is above 100 µM; with SF-268 it was > 100 µM (inactive); in the assay on NCI-H522, 25.3 µM (inactive); in the assay on T47D, 75.7 µM (inactive); in the assay on CAKI-1 it was 79.4 µM (inactive); with RPMI-8226 it was > 100 µM (inactive). In addition, the GI50 in the assay on U-251 is > 100 µM (inactive); with TK-10, > 100 µM (inactive); in the assay on OVCAR-5, > 100 µM (inactive); with A549, 55.8 µM (inactive); in the assay with HCT-116 it was 79.1 µM (inactive); in the assay on MCF7 it was 44.3 µM (inactive). Further, the GI50 in the assay on Malme-3M is > 100 µM (inactive); in the assay with UACC-62, > 100 µM (inactive); in the assay on SK-OV-3, > 100 µM (inactive); with KM12 it was 32 µM (inactive); in the assay on HOP-62, > 100 µM (inactive); in the assay with MDA-N it was > 100 µM (inactive). Further, the GI50 with OVCAR-8 was > 100 µM (inactive).

As to `COC(=O)[C@H](Cc1ccccc1)NP(=O)(O)OCC1OC(n2cc(C)c(=O)[nH]c2=O)CC1N=[N+]=[N-]` (some centres undefined), the GI50 is above 100 µM in the assay with HCT-15; > 100 µM (inactive) in the assay on SF-268; > 100 µM (inactive) in the assay on NCI-H522; > 100 µM (inactive) with T47D; > 100 µM (inactive) with CAKI-1; > 100 µM (inactive) in the assay with RPMI-8226. Moreover, the GI50 with U-251, with TK-10, in the assay with OVCAR-5, in the assay with A549, in the assay with HCT-116 and in the assay with MCF7 was > 100 µM (inactive) in each case. The GI50 in the assay with Malme-3M, with SK-OV-3, in the assay with KM12, in the assay with HOP-62, in the assay on MDA-N and in the assay with OVCAR-8 was > 100 µM (inactive) throughout.

As for `Nn1c(CCCCCCCCc2nnc(-c3c(O)ccc4ccccc34)n2N)nnc1-c1c(O)ccc2ccccc12`, the GI50 in the assay with HCT-15 is above 100 µM; in the assay on SF-268, > 100 µM (inactive); in the assay on NCI-H522, > 100 µM (inactive); with T47D, > 100 µM (inactive); in the assay on CAKI-1 it was > 100 µM (inactive); with RPMI-8226, > 100 µM (inactive). The GI50 in the assay with U-251, with TK-10, in the assay with OVCAR-5, in the assay on A549, in the assay with HCT-116 and in the assay on MCF7 was > 100 µM (inactive) in each case. Further, the GI50 in the assay with Malme-3M, in the assay on UACC-62, in the assay on SK-OV-3, in the assay with KM12, with HOP-62 and in the assay on MDA-N was > 100 µM (inactive) in each case. Besides, in the assay on OVCAR-8, the GI50 was > 100 µM (inactive).

On to `N#Cc1nc(C(O)c2ccccc2)oc1N` (centres undefined), for which the GI50 with SF-268 is > 100 µM (inactive); in the assay on NCI-H522, 76.6 µM (inactive); in the assay with T47D it was > 100 µM (inactive); in the assay on CAKI-1 it was > 100 µM (inactive); with RPMI-8226, > 100 µM (inactive); in the assay on U-251, > 100 µM (inactive). The GI50 in the assay with TK-10, in the assay with OVCAR-5, with A549, in the assay with HCT-116, in the assay with MCF7 and in the assay on Malme-3M was > 100 µM (inactive) each time. For the same compound, the GI50 with UACC-62, with SK-OV-3, in the assay with KM12, with HOP-62, in the assay on MDA-N and with OVCAR-8 was > 100 µM (inactive) each time.

On to `CC1(C)CC[C@]2(C(=O)O)CC[C@]3(C)C(=CC[C@@H]4[C@@]5(C)CC[C@H](OC6OC(C(=O)O)C(O)C(O)C6O)C(C)(C)[C@@H]5CC[C@]43C)[C@@H]2C1` (some centres undefined), for which the GI50 was 16.9 µM in the assay on HCT-15; 17.3 µM (inactive) with SF-268; 19.4 µM (inactive) in the assay on NCI-H522; 18.4 µM (inactive) in the assay with T47D; 18.7 µM (inactive) in the assay with CAKI-1; 19.8 µM (inactive) in the assay on RPMI-8226. For the same compound, the GI50 was 14.9 µM (inactive) in the assay on U-251; 16.2 µM (inactive) in the assay with OVCAR-5; 18.8 µM (inactive) with A549; 16.8 µM (inactive) in the assay with HCT-116; 24.9 µM (inactive) with MCF7; 18.1 µM (inactive) in the assay with Malme-3M. For the same compound, the GI50 in the assay on UACC-62 was 18.4 µM (inactive); in the assay on SK-OV-3, 19.5 µM (inactive); in the assay with KM12 it was 16.5 µM (inactive); in the assay with HOP-62 it was 18.8 µM (inactive); in the assay on MDA-N, 18.4 µM (inactive); in the assay with OVCAR-8, 20.8 µM (inactive).

`CC(NC(=O)C(N)CC(=O)O)NC(=O)N1CCCC1` (centres undefined): the GI50 was above 100 µM in the assay with HCT-15; > 100 µM (inactive) in the assay on SF-268; > 100 µM (inactive) with NCI-H522; > 100 µM (inactive) in the assay on T47D; > 100 µM (inactive) in the assay with CAKI-1; > 100 µM (inactive) in the assay on RPMI-8226. The GI50 in the assay on U-251, in the assay on TK-10, with OVCAR-5, with A549, with HCT-116 and with MCF7 was > 100 µM (inactive) throughout. Also, the GI50 with Malme-3M, in the assay on UACC-62, in the assay on SK-OV-3, in the assay on KM12, in the assay on HOP-62 and in the assay with MDA-N was > 100 µM (inactive) each time. Further, in the assay with OVCAR-8, the GI50 is > 100 µM (inactive).

For the compound `Nc1nc(N)c(N=O)c(Nc2ccc(O)cc2)n1`, the GI50 in the assay on HCT-15 is above 57.3 µM; with SF-268 it was 38 µM (inactive); with NCI-H522 it was 15.9 µM (inactive); in the assay on T47D, 14.9 µM (inactive); in the assay on CAKI-1 it was > 45.4 µM (inactive); in the assay on RPMI-8226, > 44.4 µM (inactive). Also, the GI50 with U-251 was > 52 µM (inactive); in the assay on TK-10, > 63 µM (inactive); in the assay on A549, > 81.3 µM (inactive); in the assay on HCT-116, > 73.3 µM (inactive); in the assay with MCF7, 5.97 µM (inactive); in the assay with Malme-3M it was 33.4 µM (inactive). Besides, the GI50 with UACC-62 was 41 µM (inactive); in the assay on SK-OV-3, 18.1 µM (inactive); in the assay on KM12, > 57.4 µM (inactive); in the assay on HOP-62 it was 37.5 µM (inactive); in the assay with MDA-N, 28.8 µM (inactive); in the assay with OVCAR-8 it was 32 µM (inactive).

`O=c1oc2ccccc2c(Nc2ccc3c(c2)Sc2ccccc2O3)c1[N+](=O)[O-]`: the GI50 with HCT-15 is 25.1 µM; in the assay with SF-268, 33.6 µM (inactive); in the assay on NCI-H522, 16.4 µM (inactive); in the assay with T47D, 20.8 µM (inactive); in the assay on CAKI-1 it was 26.1 µM (inactive); with RPMI-8226 it was 13.7 µM (inactive). Further, the GI50 is 18.5 µM (inactive) with U-251; 23.6 µM (inactive) in the assay with TK-10; 34.6 µM (inactive) in the assay with OVCAR-5; 21.1 µM (inactive) in the assay with A549; 25.5 µM (inactive) in the assay with HCT-116; 18.7 µM (inactive) with MCF7. Also, the GI50 in the assay with Malme-3M is 21.2 µM (inactive); in the assay on UACC-62, 14.1 µM (inactive); in the assay with SK-OV-3, 35.2 µM (inactive); with KM12 it was 24.7 µM (inactive); in the assay on HOP-62 it was 29.4 µM (inactive); in the assay with MDA-N, 30.9 µM (inactive). Further, the GI50 with OVCAR-8 is 30.8 µM (inactive).

`CCOC(=O)C1=NOC2(C=C(Br)C(=O)C(Br)=C2)C1`: the GI50 in the assay on HCT-15 was 2.03 µM; with SF-268, 14.8 µM (inactive); with NCI-H522, 0.335 µM (active); with T47D, 1.21 µM (inactive); in the assay with CAKI-1, 1.3 µM (inactive); in the assay with RPMI-8226 it was 0.217 µM (active). Further, the GI50 in the assay on U-251 is 9.93 µM (inactive); in the assay on TK-10, 0.902 µM (active); in the assay with OVCAR-5, 5.47 µM (inactive); with A549 it was 22 µM (inactive); with HCT-116, 1.1 µM (active); with MCF7, 2.45 µM (inactive). For the same compound, the GI50 was 0.625 µM (active) in the assay with Malme-3M; 3.7 µM (inactive) in the assay with UACC-62; 8.39 µM (inactive) in the assay with SK-OV-3; 13.4 µM (inactive) with KM12; 6.41 µM (inactive) with HOP-62; 1.64 µM (inactive) with MDA-N. Further, the GI50 in the assay on OVCAR-8 was 2.04 µM (inactive).

As for `C[C@H](OC(=O)/C=C/c1ccc(O)c(O)c1)[C@H](C)OC(=O)/C=C/c1ccc(O)c(O)c1`, the GI50 was 4.71 µM in the assay with HCT-15; 7.43 µM (inactive) in the assay on SF-268; 6.98 µM (inactive) with NCI-H522; 4.41 µM (inactive) in the assay on T47D; 7.89 µM (inactive) in the assay on CAKI-1; 9.59 µM (inactive) in the assay with RPMI-8226. For the same compound, the GI50 with U-251 is 10.8 µM (inactive); in the assay with TK-10, 10 µM (inactive); in the assay on OVCAR-5 it was 14 µM (inactive); in the assay on A549, 7.94 µM (inactive); in the assay on HCT-116, 3.72 µM (inactive); with MCF7, 6.28 µM (inactive). Also, the GI50 with Malme-3M is 14.7 µM (inactive); with UACC-62, 2.93 µM (inactive); in the assay on SK-OV-3, 16.3 µM (inactive); with KM12, 5.25 µM (inactive); in the assay on HOP-62, 11.1 µM (inactive); in the assay with MDA-N, 4.45 µM (inactive). Moreover, the GI50 in the assay on OVCAR-8 was 6.15 µM (inactive).
